Reference: publication PMC9061999, “Application of the Adverse Outcome Pathway Concept to In Vitro Nephrotoxicity Assessment: Kidney Injury due to Receptor-Mediated Endocytosis and Lysosomal Overload as a Case Study” (Frontiers in Toxicology, 2022)

Test system: NRK-52E cells
Test: LAMP-1 immunofluorescence (KE1, disturbance of lysosomal function)
Type: cell-based, rat
Details: for BMC10, KE1: in vitro POD from KE dose-response, LAMP-1 intensity, NRK-52E, 24 h treatment, n = 3; for MOE, KE1: margin of exposure: BMC10 in NRK-52E vs rat plasma/serum concentration (cmax or css)
Method: For immunocytochemistry experiments, cells were seeded into 8-well chamber slides (Ibidi) at a density of 140 cells per µL in 300 µL growth medium and were allowed to grow for 48 h (NRK-52E) or 10 d (RPTEC/TERT1) respectively. For treatment, stock solutions (1,000 µM) of compounds dissolved in growth medium were freshly prepared and serial dilutions were made before exposure of cells for 24 h. After treatment, cells were washed twice with 150 µL PBS and fixed with 150 µL 4% paraformaldehyde in 1 x PBS for 10 min at room temperature. After fixation, cells were washed 10 min with 150 µL PBS on an orbital shaker followed by permeabilization with 150 µL 0.2% Triton X-100 in 1 x PBS for 5 min at room temperature on an orbital shaker. The permeabilized cells were washed twice with 1 x PBS (150 µL) for 10 min at room temperature on an orbital shaker and then incubated with 150 µL 5% BSA dissolved in 1 x PBS for 1 h at room temperature to block unspecific binding sites. After blocking, 100 µL primary antibody diluted 1:100 in 1% BSA in 1 x PBS were directly pipetted onto the cells and incubated overnight at 4°C. The following antibodies were employed for NRK-52E cells: Anti-LAMP-1 monoclonal IgG1 kappa mouse antibody (Santa Cruz; sc-20011), anti-Cathepsin D mouse monoclonal IgG2 kappa antibody (Santa Cruz; sc-377124); for RPTEC/TERT1 cells: Anti-LAMP-2 monoclonal mouse antibody (Santa Cruz; sc-18822), anti-Cathepsin D mouse monoclonal IgG2b kappa (Novus Biologicals; NBP1-04278); for both cell lines anti-megalin mouse monoclonal IgG1 antibody (Santa Cruz, sc-515772).
After incubation with primary antibody, cells were washed three times for 15 min with 0.2% Tween in 1 x PBS (150 µL) on an orbital shaker. Cells were incubated for 1 h at room temperature with 100 µL CFL 488-conjugated mouse IgG kappa binding protein (1:50) (m-IgGκ BP-CFL 488; Santa Cruz, sc-516176). After incubation the cells were washed three times for 15 min with 0.2% Tween in 1 x PBS on an orbital shaker and once with 150 µL sterile water. […] To preserve fluorescence 50–100 µL DAPI mounting medium (Vectashield®; Vectorlab, Biozol) was added to the cells and chamber slides were stored at 4°C in the dark until image acquisition.
Images were taken with a TCS SP5 II confocal microscope with an HCX PL APO lambda blue 63.0 × 1.40 OIL UV objective (Leica Microsystems, Wetzlar, GER) (n = 10 cells/treatment group). […] Before quantification, images were blinded and randomized. Quantification of fluorescence intensity was performed using NIH Image® software. […] The mean values of the pixel intensities were automatically calculated by the software and imported in Excel for further processing.

Substance | BMC10, KE1 | MOE, KE1
Colistin | 36.2 µM | 3.5 – 7.1
Polymyxin B | 13.7 µM | 1.9 – 2.0
